The record followed here is ChEMBL document CHEMBL1201862, “PubChem BioAssay data set” (2004).

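A five-concentration, 48-hour dose response in 96-well plates underlies each endpoint, interpolated linearly between surrounding concentrations. The concentration for 50% growth inhibition is given as GI50.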 Activity calls are given as the source filed them. No stated cut-off is given here; in the data, active = GI50 up to about 1.1 µM and inactive = higher.

Among the test systems are HOP-92; SF-539; A498; U-251; M14; UO-31; NCI-H522; RPMI-8226; 786-0; HCC 2998; PC-3; OVCAR-5; SK-MEL-5; HL-60; SR; HCT-116; SW-620; SK-MEL-2; CCRF-CEM; OVCAR-4.
What all share (experiment): growth of human tumour cells (NCI), 48 h

For `O=C(O)c1ccccc1C1CCCc2c1[nH]c1ccccc21` (configuration not stated), the GI50 is 24 µM (inactive) with HOP-92; 88.7 µM (inactive) in the assay on SF-539; 30.2 µM (inactive) in the assay with A498; 81.8 µM (inactive) in the assay with U-251; 53.5 µM (inactive) in the assay with M14; 58.5 µM (inactive) in the assay with UO-31. The GI50 in the assay on NCI-H522 was 47.9 µM (inactive); with RPMI-8226, 28.8 µM (inactive); in the assay on 786-0, > 100 µM (inactive); in the assay on HCC 2998, > 100 µM (inactive); in the assay on PC-3 it was 46.9 µM (inactive); in the assay with OVCAR-5, > 100 µM (inactive). Also, the GI50 was 36.5 µM (inactive) in the assay with SK-MEL-5; 33.2 µM (inactive) in the assay on HL-60; 47 µM (inactive) in the assay on SR; 33.8 µM (inactive) in the assay on HCT-116; 57.1 µM (inactive) with SW-620; 91.6 µM (inactive) in the assay on SK-MEL-2. Moreover, the GI50 in the assay on CCRF-CEM is 20 µM (inactive); in the assay on OVCAR-4, 41.3 µM (inactive).
As for `CCCCCCCCCCCCCCCCCCNc1ccn(C2OC(COP(=O)(O)OCC3OC(n4cc(F)c(NCCCCCCCCCCCCCCCCCC)nc4=O)CC3O)C(O)C2O)c(=O)n1` (configuration not stated), the GI50 in the assay on HOP-92 was 19.3 µM (inactive); with SF-539 it was > 100 µM (inactive); in the assay with A498 it was 25.8 µM (inactive); in the assay on U-251, 67 µM (inactive); in the assay with M14 it was > 100 µM (inactive); with UO-31 it was > 100 µM (inactive). In addition, the GI50 in the assay with NCI-H522 is 38.9 µM (inactive); with RPMI-8226, 66.4 µM (inactive); with 786-0, > 100 µM (inactive); with HCC 2998 it was 63.5 µM (inactive); in the assay on PC-3, 56.8 µM (inactive); with OVCAR-5, > 100 µM (inactive). The GI50 with SK-MEL-5, in the assay with HL-60, with SR, in the assay on HCT-116, in the assay with SW-620 and in the assay on SK-MEL-2 was > 100 µM (inactive) each time. Further, the GI50 in the assay with CCRF-CEM and with OVCAR-4 was > 100 µM (inactive) throughout.
On to `CCc1c(-c2ccc(OC)cc2)c(=O)oc2cc(O)ccc12`, for which the GI50 with HOP-92 was 75.9 µM (inactive); in the assay with SF-539, 44.1 µM (inactive); in the assay with A498, 22.6 µM (inactive); in the assay on U-251, 38.4 µM (inactive); in the assay on M14, 23.9 µM (inactive); in the assay with UO-31 it was 19.9 µM (inactive). The GI50 is 29.5 µM (inactive) with NCI-H522; 18.6 µM (inactive) with RPMI-8226; 51.2 µM (inactive) in the assay with 786-0; 72.3 µM (inactive) in the assay with HCC 2998; 24.7 µM (inactive) in the assay with PC-3; > 100 µM (inactive) with OVCAR-5. Besides, the GI50 with SK-MEL-5 is 14.8 µM (inactive); with HL-60 it was 16.7 µM (inactive); with SR, 16.7 µM (inactive); with HCT-116, 36.5 µM (inactive); in the assay with SW-620, 51.3 µM (inactive); in the assay on SK-MEL-2 it was > 100 µM (inactive). Besides, the GI50 in the assay with CCRF-CEM is 27.4 µM (inactive); with OVCAR-4, 33.8 µM (inactive).
As to `CC[C@@]1(O)C(=O)OCc2c1cc1n(c2=O)Cc2c-1nc1ccccc1c2/C=N\NC(=O)C1CCCN1` (some centres not stated), the GI50 was 0.601 µM (active) in the assay on HOP-92; < 0.01 µM (active) with SF-539; 0.435 µM (active) in the assay with A498; 0.0362 µM (active) in the assay with U-251; 0.147 µM (active) with M14; 0.457 µM (active) with UO-31. The GI50 in the assay on NCI-H522 was 0.282 µM (active); with RPMI-8226 it was 0.818 µM (active); in the assay on 786-0, 0.0461 µM (active); in the assay with HCC 2998, 1.98 µM (inactive); in the assay on PC-3, 2.47 µM (inactive); in the assay on OVCAR-5 it was 4.93 µM (inactive). Moreover, the GI50 was 0.238 µM (active) with SK-MEL-5; 0.046 µM (active) in the assay with HL-60; < 0.01 µM (active) in the assay with SR; 0.354 µM (active) with HCT-116; 0.185 µM (active) in the assay with SW-620; 11.8 µM (inactive) in the assay on SK-MEL-2. Besides, in the assay with OVCAR-4, the GI50 is 19.6 µM (inactive).
Take `CNC(=O)OCc1c(COC(=O)NC)c(C)n(-c2ccc(Br)cc2)c1C`: the GI50 in the assay with HOP-92 is 7.76 µM (inactive); in the assay on SF-539 it was 15.4 µM (inactive); with A498, 1.36 µM (inactive); with U-251, 10.7 µM (inactive); with M14, 13.2 µM (inactive); in the assay on UO-31 it was 5.57 µM (inactive). For the same compound, the GI50 was 10.2 µM (inactive) in the assay on NCI-H522; 11 µM (inactive) with RPMI-8226; 9.82 µM (inactive) with 786-0; 15.2 µM (inactive) with HCC 2998; 17.2 µM (inactive) in the assay on PC-3; 12.9 µM (inactive) in the assay on OVCAR-5. Besides, the GI50 in the assay on SK-MEL-5 was 13.6 µM (inactive); in the assay on HL-60, 6.25 µM (inactive); with SR, 1.38 µM (inactive); in the assay on HCT-116, 10.8 µM (inactive); in the assay on SW-620, 10.7 µM (inactive); in the assay on SK-MEL-2, 15.5 µM (inactive). The GI50 with CCRF-CEM was 4.85 µM (inactive).
Consider `O=c1nc(N2CCCCC2)sc2[nH]c3ccccc3c12`, for which the GI50 in the assay on HOP-92 is 55.3 µM (inactive); with SF-539 it was > 100 µM (inactive); in the assay on A498 it was > 100 µM (inactive); with U-251, 96.4 µM (inactive); with M14, 34.8 µM (inactive); in the assay with UO-31 it was 24.8 µM (inactive). Also, the GI50 in the assay on NCI-H522 is > 100 µM (inactive); in the assay with RPMI-8226, 40.9 µM (inactive); in the assay on 786-0, > 100 µM (inactive); in the assay on PC-3, > 100 µM (inactive); in the assay on OVCAR-5, 11.1 µM (inactive); in the assay with SK-MEL-5, > 100 µM (inactive). For the same compound, the GI50 with HL-60, with SR, in the assay with SW-620, in the assay with SK-MEL-2 and in the assay on OVCAR-4 was > 100 µM (inactive) throughout.
Turning to `O=C1CC2CC(CC3(CO3)C2)C1F` (configuration not stated), the GI50 in the assay with HOP-92 was 23 µM (inactive); in the assay on A498, > 100 µM (inactive); in the assay with U-251 it was > 100 µM (inactive); with M14, > 100 µM (inactive); with UO-31, > 100 µM (inactive); with NCI-H522, > 100 µM (inactive). Further, the GI50 with RPMI-8226, with 786-0, with HCC 2998, in the assay on PC-3, with OVCAR-5 and in the assay with SK-MEL-5 was > 100 µM (inactive) in each case. The GI50 with HL-60, in the assay on SR, with HCT-116, with SK-MEL-2, in the assay with CCRF-CEM and with OVCAR-4 was > 100 µM (inactive) throughout.
`Nc1nc(=S)n(-c2ccc(Cl)cc2)c2nc3ccccc3cc12`: the GI50 in the assay with HOP-92 is 9.82 µM (inactive); in the assay with A498, > 100 µM (inactive); in the assay with U-251, 48.9 µM (inactive); in the assay with M14, 84.9 µM (inactive); with UO-31, 33.6 µM (inactive); in the assay with NCI-H522, 45.3 µM (inactive). Further, the GI50 is 59.6 µM (inactive) in the assay with RPMI-8226; 53.3 µM (inactive) in the assay with 786-0; 64.6 µM (inactive) in the assay with HCC 2998; 46.8 µM (inactive) with PC-3; 83.2 µM (inactive) with OVCAR-5; 51.8 µM (inactive) with SK-MEL-5. Besides, the GI50 in the assay with HL-60 was > 100 µM (inactive); with SR it was 16.1 µM (inactive); in the assay on HCT-116 it was 40.7 µM (inactive); in the assay on SW-620 it was 95.5 µM (inactive); with SK-MEL-2, 49.7 µM (inactive); in the assay with CCRF-CEM it was 42.4 µM (inactive). In addition, the GI50 in the assay on OVCAR-4 was 46.7 µM (inactive).
